In the supplement of paper PMC12076712 one finds pIC50 data, which are given here for six compounds.

What all share (assay): pIC50, kinobeads binding competition
For one assay, the target named is T1, EIF2AK3 (UniProt Q9NZJ5).
T1 sequence (whole entry): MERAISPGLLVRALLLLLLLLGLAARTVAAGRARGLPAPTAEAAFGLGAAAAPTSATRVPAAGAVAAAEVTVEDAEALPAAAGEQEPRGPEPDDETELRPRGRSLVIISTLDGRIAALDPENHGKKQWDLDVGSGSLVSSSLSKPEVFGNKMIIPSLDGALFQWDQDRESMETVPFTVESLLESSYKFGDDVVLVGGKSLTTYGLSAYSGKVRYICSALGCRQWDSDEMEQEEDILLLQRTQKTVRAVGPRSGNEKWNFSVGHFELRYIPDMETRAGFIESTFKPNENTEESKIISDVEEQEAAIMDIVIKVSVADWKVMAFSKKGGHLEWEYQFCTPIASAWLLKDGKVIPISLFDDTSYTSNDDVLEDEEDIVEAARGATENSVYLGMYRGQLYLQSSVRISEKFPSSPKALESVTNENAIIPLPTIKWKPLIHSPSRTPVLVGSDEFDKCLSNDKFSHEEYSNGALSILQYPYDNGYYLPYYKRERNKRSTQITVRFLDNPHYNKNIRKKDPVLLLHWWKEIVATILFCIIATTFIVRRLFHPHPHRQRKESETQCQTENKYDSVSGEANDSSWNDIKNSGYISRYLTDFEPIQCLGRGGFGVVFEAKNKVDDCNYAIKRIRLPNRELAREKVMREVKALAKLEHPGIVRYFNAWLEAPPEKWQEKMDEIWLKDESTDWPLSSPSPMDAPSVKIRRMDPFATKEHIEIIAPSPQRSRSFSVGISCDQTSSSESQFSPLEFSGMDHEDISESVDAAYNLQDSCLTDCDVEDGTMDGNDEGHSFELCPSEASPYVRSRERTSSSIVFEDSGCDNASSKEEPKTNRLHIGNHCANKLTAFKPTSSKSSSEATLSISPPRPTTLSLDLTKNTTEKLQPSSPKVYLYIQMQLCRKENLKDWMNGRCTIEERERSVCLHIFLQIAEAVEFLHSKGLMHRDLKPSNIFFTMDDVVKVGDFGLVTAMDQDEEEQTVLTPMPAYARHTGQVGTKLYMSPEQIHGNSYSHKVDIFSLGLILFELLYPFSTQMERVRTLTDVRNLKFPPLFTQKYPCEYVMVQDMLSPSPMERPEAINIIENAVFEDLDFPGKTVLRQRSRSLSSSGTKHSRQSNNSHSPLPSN
The following applies: cell material: Lysate mix. The gist of the method: (§1)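 Fold changes relative to vehicle, from biological duplicates, were fitted with logistic dose-response models in the R drc package to give pIC50. These fold changes came from TMT10 LC-MS/MS quantification of digested Kinobeads-bound proteins. Compound was applied at nine concentrations (top 30 μM) either to live Jurkat cells in 1:4 steps for 60 min at 37 °C before lysis, or to Jurkat lysate or a 1:1:1:1 HEK293/K-562/HepG2/placenta lysate mix in 1:5 steps for 60 min at 4 °C.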

The next assay addresses HIPK2 (UniProt Q9H2X6). In short, it runs like this:
as §1

The next assay concerns the target MAPK14 (UniProt Q16539). The gist of the method: as §1
In another assay the target is T2, MERTK (UniProt Q12866).
T2 sequence (whole entry): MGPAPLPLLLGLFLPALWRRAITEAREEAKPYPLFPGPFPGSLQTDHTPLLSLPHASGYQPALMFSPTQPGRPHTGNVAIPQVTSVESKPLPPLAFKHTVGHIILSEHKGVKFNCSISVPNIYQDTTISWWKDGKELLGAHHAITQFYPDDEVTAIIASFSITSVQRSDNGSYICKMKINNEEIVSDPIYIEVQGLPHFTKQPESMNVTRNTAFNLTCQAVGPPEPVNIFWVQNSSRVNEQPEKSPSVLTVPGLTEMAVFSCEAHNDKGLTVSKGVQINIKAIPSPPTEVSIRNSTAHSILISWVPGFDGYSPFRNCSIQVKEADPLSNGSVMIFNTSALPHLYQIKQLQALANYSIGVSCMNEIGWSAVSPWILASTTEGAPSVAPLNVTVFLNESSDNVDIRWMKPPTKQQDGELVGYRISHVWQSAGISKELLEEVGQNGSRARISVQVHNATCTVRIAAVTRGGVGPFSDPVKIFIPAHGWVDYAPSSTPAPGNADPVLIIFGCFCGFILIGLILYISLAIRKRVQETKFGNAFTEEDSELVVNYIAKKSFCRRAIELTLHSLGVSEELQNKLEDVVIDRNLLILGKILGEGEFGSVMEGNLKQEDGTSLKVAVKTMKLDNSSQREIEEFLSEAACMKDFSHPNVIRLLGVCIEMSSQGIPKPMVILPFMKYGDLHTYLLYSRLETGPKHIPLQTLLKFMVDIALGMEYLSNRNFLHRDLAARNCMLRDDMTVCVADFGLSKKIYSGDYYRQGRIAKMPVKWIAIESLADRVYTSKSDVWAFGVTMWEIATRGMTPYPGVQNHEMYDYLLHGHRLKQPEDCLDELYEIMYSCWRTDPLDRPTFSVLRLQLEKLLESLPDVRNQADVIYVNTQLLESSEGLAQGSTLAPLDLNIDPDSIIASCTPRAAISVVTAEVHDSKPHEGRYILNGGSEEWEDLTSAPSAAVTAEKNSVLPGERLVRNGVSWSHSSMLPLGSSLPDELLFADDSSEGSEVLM
The gist of the method:
as §1

The next assay has as its target ROCK2 (UniProt O75116). The gist of the method: as §1
Another assay deals with UniProt P36507. In short, it runs like this: as §1
Chain of UniProt P36507 (P36507 whole entry): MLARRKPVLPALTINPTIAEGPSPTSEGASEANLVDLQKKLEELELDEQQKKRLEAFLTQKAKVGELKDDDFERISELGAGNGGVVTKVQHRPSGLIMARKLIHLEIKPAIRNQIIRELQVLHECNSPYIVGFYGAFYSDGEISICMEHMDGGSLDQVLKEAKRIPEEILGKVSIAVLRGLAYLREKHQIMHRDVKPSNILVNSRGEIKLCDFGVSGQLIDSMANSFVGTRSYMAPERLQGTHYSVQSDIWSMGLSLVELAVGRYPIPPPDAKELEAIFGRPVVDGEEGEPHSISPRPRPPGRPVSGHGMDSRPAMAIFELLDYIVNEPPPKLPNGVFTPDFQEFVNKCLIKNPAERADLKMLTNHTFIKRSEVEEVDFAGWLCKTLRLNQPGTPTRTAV
The target of another assay is T3, UniProt P46734.
T3 sequence (whole entry): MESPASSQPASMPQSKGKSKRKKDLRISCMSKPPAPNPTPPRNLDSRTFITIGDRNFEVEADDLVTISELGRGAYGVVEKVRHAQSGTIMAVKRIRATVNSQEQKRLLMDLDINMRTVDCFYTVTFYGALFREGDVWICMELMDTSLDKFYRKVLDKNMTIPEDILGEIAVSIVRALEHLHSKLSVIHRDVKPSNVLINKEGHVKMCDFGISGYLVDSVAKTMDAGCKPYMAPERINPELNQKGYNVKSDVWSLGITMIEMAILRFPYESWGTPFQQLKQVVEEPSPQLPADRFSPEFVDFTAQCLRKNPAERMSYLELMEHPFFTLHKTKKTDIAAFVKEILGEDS
In short, it runs like this:
as §1

SMILES strings stand for the structures.

Chain of MAPK14 (Q16539 whole entry): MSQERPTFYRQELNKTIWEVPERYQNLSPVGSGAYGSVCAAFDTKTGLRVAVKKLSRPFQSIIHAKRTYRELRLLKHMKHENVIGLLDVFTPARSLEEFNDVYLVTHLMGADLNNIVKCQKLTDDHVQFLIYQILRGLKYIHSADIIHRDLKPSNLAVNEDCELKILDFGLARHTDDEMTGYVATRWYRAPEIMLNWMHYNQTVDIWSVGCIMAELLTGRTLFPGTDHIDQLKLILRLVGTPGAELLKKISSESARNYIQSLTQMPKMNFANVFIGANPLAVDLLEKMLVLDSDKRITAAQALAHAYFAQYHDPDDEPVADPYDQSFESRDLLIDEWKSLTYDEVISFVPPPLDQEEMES
Chain of ROCK2 (O75116 whole entry, looked up): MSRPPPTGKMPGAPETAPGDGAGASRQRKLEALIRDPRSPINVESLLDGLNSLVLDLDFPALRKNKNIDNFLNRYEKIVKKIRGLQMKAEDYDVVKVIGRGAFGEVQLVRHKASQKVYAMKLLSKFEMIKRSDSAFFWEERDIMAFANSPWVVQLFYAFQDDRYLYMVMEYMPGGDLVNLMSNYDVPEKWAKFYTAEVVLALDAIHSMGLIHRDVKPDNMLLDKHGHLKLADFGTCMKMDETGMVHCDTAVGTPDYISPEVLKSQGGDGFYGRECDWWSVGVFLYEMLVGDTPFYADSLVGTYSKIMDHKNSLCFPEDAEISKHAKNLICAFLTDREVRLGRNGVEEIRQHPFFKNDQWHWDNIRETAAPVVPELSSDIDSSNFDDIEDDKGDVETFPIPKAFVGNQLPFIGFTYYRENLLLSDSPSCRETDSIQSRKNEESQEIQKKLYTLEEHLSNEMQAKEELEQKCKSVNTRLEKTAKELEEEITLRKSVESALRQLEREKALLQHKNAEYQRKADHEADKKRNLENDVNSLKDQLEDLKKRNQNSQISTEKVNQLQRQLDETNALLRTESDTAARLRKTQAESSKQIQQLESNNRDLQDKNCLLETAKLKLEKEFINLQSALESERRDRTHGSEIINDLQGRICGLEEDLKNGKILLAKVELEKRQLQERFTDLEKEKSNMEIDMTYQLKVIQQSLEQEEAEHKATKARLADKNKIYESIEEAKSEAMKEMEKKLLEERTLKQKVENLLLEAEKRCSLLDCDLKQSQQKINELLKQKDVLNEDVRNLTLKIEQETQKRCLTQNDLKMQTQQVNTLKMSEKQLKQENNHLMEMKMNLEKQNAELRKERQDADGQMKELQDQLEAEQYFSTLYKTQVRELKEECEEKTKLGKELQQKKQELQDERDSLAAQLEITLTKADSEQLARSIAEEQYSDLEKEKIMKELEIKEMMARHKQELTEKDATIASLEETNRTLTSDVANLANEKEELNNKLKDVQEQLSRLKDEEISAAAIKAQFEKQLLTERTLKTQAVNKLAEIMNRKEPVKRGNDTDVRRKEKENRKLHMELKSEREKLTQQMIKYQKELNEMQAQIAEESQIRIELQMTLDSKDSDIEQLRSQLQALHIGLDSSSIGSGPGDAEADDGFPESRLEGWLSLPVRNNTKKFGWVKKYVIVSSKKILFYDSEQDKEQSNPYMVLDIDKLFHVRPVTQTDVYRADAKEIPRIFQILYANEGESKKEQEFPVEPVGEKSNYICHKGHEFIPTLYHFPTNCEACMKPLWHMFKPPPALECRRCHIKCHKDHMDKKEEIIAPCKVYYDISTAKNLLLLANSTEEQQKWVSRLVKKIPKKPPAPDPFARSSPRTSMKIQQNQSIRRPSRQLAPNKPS
Chain of HIPK2 (Q9H2X6 whole entry, looked up): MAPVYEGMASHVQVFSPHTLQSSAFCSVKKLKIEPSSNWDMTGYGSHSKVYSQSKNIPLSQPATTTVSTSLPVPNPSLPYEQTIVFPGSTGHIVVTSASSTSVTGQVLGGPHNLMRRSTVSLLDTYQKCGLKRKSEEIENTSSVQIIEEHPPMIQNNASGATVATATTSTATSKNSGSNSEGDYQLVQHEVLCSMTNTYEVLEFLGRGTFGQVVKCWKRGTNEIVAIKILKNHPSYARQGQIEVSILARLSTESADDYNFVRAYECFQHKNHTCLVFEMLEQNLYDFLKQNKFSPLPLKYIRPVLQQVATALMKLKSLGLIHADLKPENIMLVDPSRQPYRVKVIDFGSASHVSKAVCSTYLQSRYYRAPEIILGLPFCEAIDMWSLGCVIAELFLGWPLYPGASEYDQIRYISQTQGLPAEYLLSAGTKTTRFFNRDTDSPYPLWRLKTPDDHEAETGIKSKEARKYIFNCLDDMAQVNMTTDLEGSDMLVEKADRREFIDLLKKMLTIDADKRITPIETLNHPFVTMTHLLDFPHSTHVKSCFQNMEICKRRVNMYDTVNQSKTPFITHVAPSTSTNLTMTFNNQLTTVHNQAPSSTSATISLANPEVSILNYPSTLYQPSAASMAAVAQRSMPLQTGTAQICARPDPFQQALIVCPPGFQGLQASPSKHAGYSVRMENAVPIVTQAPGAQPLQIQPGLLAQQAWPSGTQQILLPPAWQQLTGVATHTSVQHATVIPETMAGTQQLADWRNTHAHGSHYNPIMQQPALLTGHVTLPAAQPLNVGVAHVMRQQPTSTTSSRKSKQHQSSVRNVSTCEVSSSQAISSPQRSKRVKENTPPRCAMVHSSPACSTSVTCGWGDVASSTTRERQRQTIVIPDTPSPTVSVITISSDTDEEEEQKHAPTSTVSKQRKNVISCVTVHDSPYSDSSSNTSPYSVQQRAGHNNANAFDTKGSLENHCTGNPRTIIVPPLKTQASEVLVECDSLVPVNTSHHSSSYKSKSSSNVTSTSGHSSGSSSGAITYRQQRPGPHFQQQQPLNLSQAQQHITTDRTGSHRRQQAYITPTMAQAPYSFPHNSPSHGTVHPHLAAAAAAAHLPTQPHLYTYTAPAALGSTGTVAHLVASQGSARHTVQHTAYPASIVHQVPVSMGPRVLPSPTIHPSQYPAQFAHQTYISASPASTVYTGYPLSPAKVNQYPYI

As to `Cc1cc(Nc2cc(C(=O)NCCNC(=O)OC3CC/C=C/CCC3)nc(N3CCN(Cc4ccc(S(=O)(=O)F)cc4)CC3)n2)n[nH]1` (stereo not drawn), the pIC50 at EIF2AK3, at HIPK2 (cell material: Lysate mix), on MAPK14 (cell material: Lysate mix), at MERTK (cell material: Lysate mix), at ROCK2 (cell material: Lysate mix) and on UniProt P36507 (cell material: Lysate mix) was under 4.52 each time. At UniProt P46734 (cell material: Lysate mix), the pIC50 (in general, −log10 of the IC50, conventionally taken in molar units) is under 4.52.
Regarding `C#CCNC(=O)c1cc(Nc2cc(C3CC3)[nH]n2)nc(N2CCN(Cc3ccc(S(=O)(=O)F)cc3)CC2)n1`, the pIC50 at EIF2AK3 was under 4.52; on HIPK2 (cell material: Jurkat cells), 6.12; at HIPK2 (cell material: Jurkat lysate), 5.54; at HIPK2 (cell material: Lysate mix) it was 5.92; at MAPK14 (cell material: Jurkat cells) it was under 4.52; on MAPK14 (cell material: Jurkat lysate), under 4.52. Besides, the pIC50 on MAPK14 (cell material: Lysate mix) was under 4.52; at MERTK (cell material: Jurkat cells), 6.29; at MERTK (cell material: Jurkat lysate) it was under 4.52; on MERTK (cell material: Lysate mix), 4.84; on ROCK2 (cell material: Jurkat cells) it was 4.76; at ROCK2 (cell material: Lysate mix) it was under 4.52. Further, the pIC50 at UniProt P36507 (cell material: Jurkat cells) is 6.02; at UniProt P36507 (cell material: Jurkat lysate), under 4.52; on UniProt P36507 (cell material: Lysate mix), 5.72; at UniProt P46734 (cell material: Jurkat cells) it was 5.54; on UniProt P46734 (cell material: Lysate mix), 4.87.
With `CCNC(=O)c1cc(Nc2cc(C3CC3)[nH]n2)nc(N2CCN(Cc3ccc(S(=O)(=O)F)cc3)CC2)n1`, the pIC50 on EIF2AK3 is under 4.52; at HIPK2 (cell material: Lysate mix), 5.72; on MAPK14 (cell material: Lysate mix), under 4.52; on MERTK (cell material: Lysate mix), 4.94; at ROCK2 (cell material: Lysate mix) it was under 4.52; at UniProt P36507 (cell material: Lysate mix) it was 5.73. Besides, the pIC50 on UniProt P46734 (cell material: Lysate mix) came to 4.9.
With `C#CCNC(=O)c1cc(Nc2cc(C)[nH]n2)nc(N2CCN(Cc3ccc(S(=O)(=O)F)cc3)CC2)n1`, the pIC50 was under 4.52 at EIF2AK3; 4.98 on HIPK2 (cell material: Lysate mix); under 4.52 on MAPK14 (cell material: Lysate mix); under 4.52 on MERTK (cell material: Lysate mix); under 4.52 on ROCK2 (cell material: Lysate mix); under 4.52 at UniProt P36507 (cell material: Lysate mix). Moreover, the pIC50 at UniProt P46734 (cell material: Lysate mix) was under 4.52.
As for `O=C(NCCNC(=O)c1cc(Nc2cc(C3CC3)[nH]n2)nc(N2CCN(Cc3ccc(S(=O)(=O)F)cc3)CC2)n1)OC1CC/C=C/CCC1` (stereo not drawn), the pIC50 is under 4.52 on EIF2AK3; 5.49 on HIPK2 (cell material: Jurkat cells); under 4.52 at HIPK2 (cell material: Jurkat lysate); under 4.52 at HIPK2 (cell material: Lysate mix); under 4.52 on MAPK14 (cell material: Jurkat cells); under 4.52 on MAPK14 (cell material: Jurkat lysate). The pIC50 is under 4.52 on MAPK14 (cell material: Lysate mix); 6.04 at MERTK (cell material: Jurkat cells); under 4.52 at MERTK (cell material: Jurkat lysate); under 4.52 at MERTK (cell material: Lysate mix); under 4.52 on ROCK2 (cell material: Jurkat cells); under 4.52 on ROCK2 (cell material: Lysate mix). The pIC50 at UniProt P36507 (cell material: Jurkat cells) was 5.27; at UniProt P36507 (cell material: Jurkat lysate) it was under 4.52; on UniProt P36507 (cell material: Lysate mix), under 4.52; at UniProt P46734 (cell material: Jurkat cells) it was under 4.52; at UniProt P46734 (cell material: Jurkat lysate), under 4.52; on UniProt P46734 (cell material: Lysate mix) it was under 4.52.
For `CCNC(=O)c1cc(Nc2cc(C)[nH]n2)nc(N2CCN(Cc3ccc(S(=O)(=O)F)cc3)CC2)n1`, the pIC50 is under 4.52 on EIF2AK3; 4.77 at HIPK2 (cell material: Lysate mix); under 4.52 at MAPK14 (cell material: Lysate mix); under 4.52 on MERTK (cell material: Lysate mix); under 4.52 on ROCK2 (cell material: Lysate mix); under 4.52 on UniProt P36507 (cell material: Lysate mix). This compound also came in with a pIC50 at UniProt P46734 (cell material: Lysate mix) of under 4.52.
